From patent US11292759B2, “Hydroxycitric acid metal heterocyclic compounds with covalent characteristics” (GLYKON TECHNOLOGIES GROUP, LLC, priority 2018, dated 2022)
One block for each compound: values may come before it.

Experiments:
[1] = target: T1, ATP citrate lyase (EC 4.1.3.8) (Homo sapiens, UniProt P53396); conditions: cited from earlier work
T1 sequence (P53396 1-1101): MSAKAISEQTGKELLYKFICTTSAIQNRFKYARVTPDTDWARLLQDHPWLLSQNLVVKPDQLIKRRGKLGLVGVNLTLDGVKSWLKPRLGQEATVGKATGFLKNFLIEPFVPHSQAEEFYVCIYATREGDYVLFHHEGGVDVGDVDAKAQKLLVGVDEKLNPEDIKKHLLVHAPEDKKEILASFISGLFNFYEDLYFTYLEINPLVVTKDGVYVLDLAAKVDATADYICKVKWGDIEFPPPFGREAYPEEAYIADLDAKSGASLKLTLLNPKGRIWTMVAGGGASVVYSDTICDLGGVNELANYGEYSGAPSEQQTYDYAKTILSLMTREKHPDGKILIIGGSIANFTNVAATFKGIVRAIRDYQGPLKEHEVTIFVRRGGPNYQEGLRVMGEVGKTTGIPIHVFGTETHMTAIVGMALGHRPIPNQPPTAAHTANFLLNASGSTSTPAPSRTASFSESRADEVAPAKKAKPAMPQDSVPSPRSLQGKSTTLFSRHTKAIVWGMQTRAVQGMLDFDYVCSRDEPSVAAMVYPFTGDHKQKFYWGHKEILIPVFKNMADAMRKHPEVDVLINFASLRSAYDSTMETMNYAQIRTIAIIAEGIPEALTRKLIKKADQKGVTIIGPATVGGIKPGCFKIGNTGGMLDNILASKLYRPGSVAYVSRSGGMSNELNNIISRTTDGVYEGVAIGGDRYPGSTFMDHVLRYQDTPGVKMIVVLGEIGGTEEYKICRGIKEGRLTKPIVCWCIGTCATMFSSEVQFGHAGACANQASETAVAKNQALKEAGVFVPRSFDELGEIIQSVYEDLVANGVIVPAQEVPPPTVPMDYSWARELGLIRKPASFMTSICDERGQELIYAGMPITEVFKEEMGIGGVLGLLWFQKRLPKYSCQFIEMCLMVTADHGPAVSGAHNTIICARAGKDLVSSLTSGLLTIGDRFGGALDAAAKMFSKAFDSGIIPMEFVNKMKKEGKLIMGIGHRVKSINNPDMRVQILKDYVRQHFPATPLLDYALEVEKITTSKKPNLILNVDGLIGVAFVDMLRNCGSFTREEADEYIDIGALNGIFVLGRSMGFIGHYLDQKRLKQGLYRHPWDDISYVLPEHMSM

[2] = system: de novo lipogenesis (DNL); experiment: De novo lipogenesis in rats (literature); assay type: in vivo; conditions: for a 70 kg human being
Source text: Dosages of various HCA compositions found to be effective are quite large, indeed beyond the normal range for pharmaceutical products, with efficacy that is highly variable. […] A later study found a significant, yet limited effect after 7 days of a diet designed specifically to induce de novo lipogenesis in humans. (Physiol Behav. 2006 Jul. 30; 88(4-5): 371-81). See also, Nutr Metab (Lond). 2005 Sep. 13; 2:23.

[3] = system: de novo lipogenesis (DNL); conditions: obese subjects, 6 g HCA/day for 5 days; cited from earlier work
[4] = Conductivity of solutions (HACH Conductivity/TDS meter); assay type: physicochemical; conditions: Concentration 0.3 mmol/l in demineralized water, no additive
Source text: The structure of the subject compounds (e.g., as described herein) can be deduced using a conductance meter to observe the extent of dissociate of the first and/or second metals from the compounds. In an experiment described below equimolar samples and comparative electrolyte conductance to K-acetate solution as a standard, data may be obtained which is characteristic of electrolyte binary conductants. […] The KMgHCA solution in water may have a pH 8-10 depending on the concentration. Under this condition, the heterocyclic anion formed will tend toward a stable form rather than an ionizable one.
Several experiments investigating the electrical conductivities of solutions of KMgHCA, KZnHCA and KMnHCA are performed. The equipment used is HACH Conductivity/TDS meter, P/N=4460-00.
Materials: KMgHCA.4H2O, KZnHCA.2H2O, KMnHCA.2H2O are prepared using methods described herein. KC2H3O2 and […] was obtained from Merck. H2O used was demineralized water.
General procedure: All the HCA compounds and Acetate were weighed and placed in a volumetric flask and dissolved with demineralized water to one liter solution and then they were tested the conductivity (EC).

[5] = system: Osteoporosis; experiment: Example 14: comparison of KCaHCA and/or KMgHCA compositions in one subject; assay type: in vivo, human; conditions: 200 mg doses, after switch from experiment 1 regimen
Experimental: • Subject: (cited as Example 12, above) • • Problem: Osteoporosis • Treatment: Materials were consumed 3 times a day after meals. • Experiment 1. Blending 150 mg KMgHCA.8H2O+50 mg KCaHCA.3H2O • A 200 mg mixture of KCaHCA (25%) and KMgHCA (75%) prepared according to the subject methods was used. The actual percentage of calcium was (40/338)×25%=2.96%. Since KCaHCA.3H2O was used the percentage of magnesium in the composition was (24/412)×75%=4.37%. Since KMgHCA.8H2O was used, the ratio Ca:Mg=0.15:0.36 in mmol. • Experiment 2. 200 mg KMgHCA.8H2O • Experiment 3.

[6] = system: osteoporosis and calcification; experiment: Example 13: comparison of bimetal regimes in two subjects; assay type: in vivo, human; set-up: key to Treatment performance: ++: very good performance; +−: good but slight complaint
Experimental: Subject I: a person, 40 kg (cited in Example 11, above)
Subject II: a person; 72 kg
Treatment: A. Mixture 25% KCa HCA+75% KMg HCA bimetals (100-200 mg)
Treatment B: Only KMg HCA but not KCa HCA was used.

[7] = cited from earlier work

SMILES: O=C(O)CC(O)(C(=O)O)C(O)C(=O)O (single isomer, unassigned; (-)) [(−)-HCA, (−)-hydroxycitric acid]
inhibition of ATP citrate lyase [1]: potent inhibitor

SMILES: O=C(O)CC(O)(C(=O)O)C(O)C(=O)O (stereo not drawn) [HCA, Hydroxycitric acid]
effective dose extrapolated from rats [2]: approximately 4.5 g/day
inhibition of DNL / promotion of fatty acid oxidation [3]: failed to inhibit DNL or to promote fatty acid oxidation

E. C (μS/cm) [4]: 56.06 μS/cm
SMILES: CC(=O)[O-].[K+] [KC2H3O2, K-acetate]

SMILES: O=C([O-])CC(O)(C(=O)[O-])C(O)C(=O)[O-].[K+].[Mg+2] (stereo not drawn) [KMgHCA]
patient's condition observed during treatment [5]: slight difficult to walk
Treatment performance ([6]; Patient II (72 kg)): +−
reduction of symptoms ([6]; Subject II): partial reduction of symptoms

E. C (μS/cm) [4]: 32.3 μS/cm
SMILES: CC(=O)[O-].CC(=O)[O-].O.O.O.O.[Mg+2] [Mg(CH3COO)2•4H2O]

SMILES: O=C(O)CO [glycolic acid]
pKa [7]: approx. 3.83
